For three molecules, Kd, Ki and IC50 results are on record in publication PMC5715060, “Key site residues of pheromone-binding protein 1 involved in interacting with sex pheromone components of Helicoverpa armigera” (Scientific Reports, 2017).

In assay [1] the target is HarmPBP1 (wild-type) (Helicoverpa armigera, UniProt F5ANH9). Description: Fluorescence binding assay (1-NPN probe), wild-type HarmPBP1. Particulars: for Ki / IC50: wild-type HarmPBP1, pH 7.4; for Ki: calculated from IC50, Ki = [IC50]/(1 + [1-NPN]/K1-NPN), read-out: Ki, dissociation constant; for IC50: mean ± S.E.M, three replicates, read-out: IC50, ligand concentration displacing 50% of the fluorescence intensity of the protein/1-NPN complex. Here is the method:
(§1) Fluorescence binding assays were performed in a reaction system at pH7.4. Probed by 1-NPN, the maximum emission wavelengths of F12A, F36A, W37A, F119A and Q64A were in the range of 390–410 nm, which are similar to that of HarmPBP1 (400 nm).
(§2) Fluorescence binding assays were conducted on the F-380 fluorescence spectrophotometer (Gangdong Sci. & Tech, Tianjin, China) in a 1-cm light path quartz cuvette to further investigate the binding abilities of the principal pheromone components of H. armigera, Z11-16:Ald and Z9-16:Ald, to mutants. The fluorescent probe N-phenyl- 1-naphthylamine (1-NPN) was dissolved in methanol to yield a 1 mM stock solution. Both of the excitation and emission slit widths were 10 nm. Fluorescence of 1-NPN was excited at 337 nm and the emission spectra were recorded between 390 and 490 nm. Z11-16:Ald and Z9-16:Ald were purchased from Sigma-Aldrich (purity >98%). All chemicals used in this study were dissolved in HPLC purity grade methanol. Fluorescence measurements were performed according to Gu et al.[11]. Dissociation constants of the competitors were calculated from the corresponding IC50 (the ligand concentration displacing 50% of the NPN fluorescence intensity of the HarmPBP1/1-NPN complex) values, using the equation: Ki = [IC50]/(1 + [1-NPN]/K1-NPN), where [1-NPN] is the free concentration of 1-NPN and K1-NPN is the dissociation constant of the HarmPBP1/1-NPN complex.

The target of assay [2] is HarmPBP1 mutant F12A (Helicoverpa armigera, UniProt F5ANH9, F39A). Briefly: Fluorescence binding assay (1-NPN probe), mutant F12A. As to the method: as §1
(§3) Four mutations of HarmPBP1, F12A (mutating phenylalanine to alanine at position 12), F36A (mutating phenylalanine to alanine at position 36), W37A (mutating tryptophan to alanine at position 37) and F119A (mutating phenylalanine to alanine at position 119) were generated by using the Quick-change lightning site-directed mutagenesis kit (Stratagene, USA), and a random mutation, Q64A (mutating glutanine to alanine at position 64) was set as control. The pGEM-T Easy/HarmPBP1 construct was used as template, and the specific primers designed for mutations were also listed in Table 1. The PCR conditions were 95 °C for 30 s, followed by 18 cycles of 95 °C for 30 s, 60 °C for 1 min, 68 °C for 4 min. Valid mutants were sub-cloned into pGEM-T easy vector (Promega, USA). Same expression vector and competent cells were used as the HarmPBP1. The recombinant mutant protein prokaryotic expression and purification were conducted as mentioned above.
as §2

For assay [3], the target named is HarmPBP1 mutant F36A (Helicoverpa armigera, UniProt F5ANH9, F63A). Briefly: Fluorescence binding assay (1-NPN probe), mutant F36A. As to the method: as §1, §3, §2
Assay [4] concerns the target HarmPBP1 mutant W37A (Helicoverpa armigera, UniProt F5ANH9, W64A). Briefly: Fluorescence binding assay (1-NPN probe), mutant W37A. As to the method: as §1, §3, §2
Assay [5] addresses HarmPBP1 mutant F119A (Helicoverpa armigera, UniProt F5ANH9, F146A). Description: Fluorescence binding assay (1-NPN probe), mutant F119A. Here is the method:
as §1, §3, §2

Assay [6] addresses HarmPBP1 mutant Q64A (Helicoverpa armigera, UniProt F5ANH9, Q91A). Briefly: Fluorescence binding assay (1-NPN probe), control mutant Q64A. Here is the method:
as §1, §3, §2

Sequence of HarmPBP1 (wild-type) (F5ANH9 entry or part of it): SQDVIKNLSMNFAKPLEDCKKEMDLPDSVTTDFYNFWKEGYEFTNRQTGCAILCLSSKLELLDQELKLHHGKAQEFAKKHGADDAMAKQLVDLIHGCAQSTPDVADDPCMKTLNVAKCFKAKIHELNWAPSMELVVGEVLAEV
Sequence of HarmPBP1 mutant W37A (F5ANH9 entry or part of it W64A): as the sequence (F5ANH9 entry or part of it) above, with W37A counted along it
Sequence of HarmPBP1 mutant F36A (F5ANH9 entry or part of it F63A): as the sequence (F5ANH9 entry or part of it) above, with F36A counted along it
Sequence of HarmPBP1 mutant Q64A (F5ANH9 entry or part of it Q91A): as the sequence (F5ANH9 entry or part of it) above, with Q64A counted along it
Sequence of HarmPBP1 mutant F12A (F5ANH9 entry or part of it F39A): as the sequence (F5ANH9 entry or part of it) above, with F12A counted along it
Sequence of HarmPBP1 mutant F119A (F5ANH9 entry or part of it F146A): as the sequence (F5ANH9 entry or part of it) above, with F119A counted along it

On to `c1ccc(Nc2cccc3ccccc23)cc1` [1-NPN, N-phenyl-1-naphthylamine], for which the Kd – broadly, the concentration at which binding is half-saturated – came to 1790 ± 140 nM in assay [1]; 2100 ± 170 nM in assay [2]; 4050 ± 690 nM in assay [3]; 1870 ± 180 nM in assay [4]; 1960 ± 160 nM in assay [5]; 2390 ± 190 nM in assay [6].

With `CCCCCC/C=C\CCCCCCCC=O` [Z9-16:Ald, (Z)-9-hexadecenal], the Ki (in general, the dissociation constant of the complex between target and ligand, obtained from inhibition or displacement) in assay [1] is 560 ± 50 nM; in assay [2], 3060 ± 220 nM; in assay [3], 720 ± 110 nM; in assay [4], 1490 ± 130 nM; in assay [5], 4610 ± 330 nM; in assay [6] it was 580 ± 30 nM. Further, the IC50 in assay [1] came to 870 ± 80 nM; in assay [2], 4630 ± 270 nM; in assay [3], 980 ± 150 nM; in assay [4], 2220 ± 190 nM; in assay [5], 6910 ± 490 nM; in assay [6], 840 ± 60 nM.

As for `CCCC/C=C\CCCCCCCCCC=O` [Z11-16:Ald, (Z)-11-hexadecenal], the Ki was 670 ± 50 nM in assay [1]; 3100 ± 130 nM in assay [2]; 760 ± 80 nM in assay [3]; 1950 ± 80 nM in assay [4]; 5110 ± 470 nM in assay [5]; 770 ± 130 nM in assay [6]. In addition, the IC50 is 1030 ± 80 nM in assay [1]; 4690 ± 330 nM in assay [2]; 1040 ± 60 nM in assay [3]; 2910 ± 120 nM in assay [4]; 7660 ± 560 nM in assay [5]; 1120 ± 210 nM in assay [6].
